What was measured:
Format in all cases: physicochemical
[1] = Hydrolysis of quaternary ammonium silane, Direct Infusion Mass Spectrometry, ESI+ mode
Experimental: In this example, hydrolysis of Compound VII was evaluated in the mass-spectrometry study (Direct Infusion Mass Spectrometry, ESI+ mode).
In a first experiment, Compound VII was dissolved in propylene glycol and diluted with acetonitrile to a final concentration of 10 μg/mL in the sample. […] Two minor peaks with m/z of 592 (Compound VII) and m/z of 534 (mono-hydrolyzed species of Compound VII) are present at low abundance. […] Exposure time during the HPLC-mass spec analysis is less than 45 seconds, further confirming the rapid hydrolysis of the quaternary ammonium silane upon exposure to water.
In a second experiment, Compound VII was diluted in water to a final concentration of 10 μg/mL in the sample. The mass spectrum of the sample was recorded at a 30-minute time point and is shown FIG. 3. Compound VII was completely hydrolyzed within the 30-minute time frame according to the following reaction scheme:
0.50% of Compound VII was formulated with 2% propylene glycol, 1% HPMC, 0.1% poloxamer 407, 2% PEG, and 94.40% water.

[2] = Dissolution in water and stability of the aqueous solution of the isolated product; conditions: for dissolution of the product in water: isolated product
[3] = Precipitation on addition to hydrogels containing ionic or non-ionic, carboxylic acid group containing ingredients; conditions: zinc gluconate, sorbitol, glycerin
Experimental: 160 mls of distilled water was added to a 250 mL screw-top media bottle. 4 g of Xanthan gum was added slowly under vigorous stirring. The mixture was stirred overnight and the Xanthan gum was fully dissolved, with the mixture homogenous and clear. Zinc gluconate (0.2 g), sorbitol (10 g), glycerin (4 g), and Poloxamer 407 (0.4 g) were added to the mixture and stirred until homogenous and clear. […] At this point the process was stopped.
160 mls of distilled water was added to a 250 mL screw-top media bottle. 0.2 g of carbomer copolymer A was added slowly under vigorous stirring. The mixture was stirred overnight and the carbomer copolymer A was fully dissolved, with the mixture homogenous and clear. Zinc gluconate (0.2 g), sorbitol (10 g), glycerin (4 g), and Poloxamer 407 (0.4 g) were added to the mixture and stirred until homogenous and clear. […] At this point the process was stopped.
160 mls of distilled water was added to a 250 mL screw-top media bottle. 0.2 g of carbomer copolymer B was added slowly under vigorous stirring. The mixture was stirred overnight and the carbomer copolymer B was fully dissolved, with the mixture homogenous and clear. Zinc gluconate (0.2 g), sorbitol (10 g), glycerin (4 g), and Poloxamer 407 (0.4 g) were added to the mixture and stirred until homogenous and clear. […] At this point the process was stopped.
160 mls of distilled water was added to a 250 mL screw-top media bottle. 0.2 g of carrageenan was added slowly under vigorous stirring. The mixture was stirred overnight and the carrageenan was fully dissolved, with the mixture homogenous and clear. Zinc gluconate (0.2 g), sorbitol (10 g), glycerin (4 g), and Poloxamer 407 (0.4 g) were added to the mixture and stirred until homogenous and clear. […] At this point the process was stopped.
160 mls of distilled water was added to a 250 mL screw-top media bottle. 0.2 g of carboxymethylcellulose Sodium was added slowly under vigorous stirring. The mixture was stirred overnight and the Carboxymethylcellulose Sodium was fully dissolved, with the mixture homogenous and clear. Zinc gluconate (0.2 g), sorbitol (10 g), glycerin (4 g), and Poloxamer 407 (0.4 g) were added to the mixture and stirred until homogenous and clear. […] At this point the process was stopped.
160 mls of distilled water was added to a 250 mL screw-top media bottle. 0.2 g of Sodium Alginate was added slowly under vigorous stirring. The mixture was stirred overnight and the Sodium Alginate was fully dissolved, with the mixture homogenous and clear. Zinc gluconate (0.2 g), sorbitol (10 g), glycerin (4 g), and Poloxamer 407 (0.4 g) were added to the mixture and stirred until homogenous and clear. […] At this point the process was stopped.
160 mls of distilled water was added to a 250 mL screw-top media bottle. 4 g of HPMC having a viscosity 2600-5600 in H2O (20° C.) was added slowly under vigorous stirring. The mixture was stirred overnight and the HPMC was fully dissolved, with the mixture homogenous and clear. Zinc gluconate (0.2 g), sorbitol (10 g), glycerin (4 g), and sodium hyaluronate (0.4 g) were added to the mixture and stirred until homogenous and clear. […] At this point the process was stopped.

CCCCCCCCCCCCCCCCCC[N+](C)(C)CCC[Si](OCC(C)O)(OCC(C)O)OCC(C)O.CS(=O)(=O)[O-] (stereo not shown) [Compound VII, N,N-dimethyl-N-(3-(tris(2-hydroxypropoxy)silyl)propyl)octadecan-1-aminium methane sulfonate]
extent of hydrolysis ([1]; 0.50% formulated with 2% propylene glycol, 1% HPMC, 0.1% poloxamer 407, 2% PEG, 94.40% water): complete hydrolysis
time frame of complete hydrolysis ([1]; diluted in water, 10 μg/mL): ≤ 30 min
extent of hydrolysis ([1]; diluted in water, 30-minute time point): complete hydrolysis
extent of hydrolysis ([1]; in propylene glycol diluted with acetonitrile, 10 μg/mL, 0.1% aqueous formic acid mobile phase, exposure less than 45 seconds): Partial hydrolysis

CCCCCCCCCCCCCCCCCC[N+](C)(C)CCC[Si](OCC(CO)(CO)NCCS(=O)(=O)[O-])(OCC(CO)(CO)NCCS(=O)(=O)O)OCC(CO)(CO)NCCS(=O)(=O)O [Compound XIX, 2-[[1-[[3-[Dimethyl(octadecyl)ammonio]propyl-[3-hydroxy-2-(hydroxymethyl)-2-(2-sulfoethylamino)propoxy]-[3-hydroxy-2-(hydroxymethyl)-2-(2-sulfoethylamino)propoxy]silyl]oxymethyl]-2-hydroxy-1-(hydroxymethyl)ethyl]amino]-ethanesulfonate]
time a solution in water remains clear ([2]; 1% solution in water): > 5 months
dissolution of the fine powder in water ([2]; water, gentle heating): dissolves quickly in water with gentle heating
precipitation on addition to the mixture ([3]; HPMC with sodium hyaluronate): immediate precipitation
precipitation on addition to the mixture ([3]; Sodium Alginate as gelling agent, Poloxamer 407): immediate precipitation
precipitation on addition to the mixture ([3]; Xanthan gum as gelling agent, Poloxamer 407): immediate precipitation
precipitation on addition to the mixture ([3]; carbomer copolymer A as gelling agent, Poloxamer 407): immediate precipitation
precipitation on addition to the mixture ([3]; carbomer copolymer B as gelling agent, Poloxamer 407): immediate precipitation
precipitation on addition to the mixture ([3]; carboxymethylcellulose Sodium as gelling agent, Poloxamer 407): immediate precipitation
precipitation on addition to the mixture ([3]; carrageenan as gelling agent, Poloxamer 407): immediate precipitation

CCCCCCCCCCCCCCCCCC[N+](C)(C)CCC[Si](OCC(C)O)(OCC(C)O)OCC(C)O (stereo not shown) [Example 1, Dimethyl-octadecyl-[3-[tris(2-hydroxypropoxy)silyl]propyl]ammonium chloride]
dissolution of the product in water ([2]; water): dissolved readily in water

CCCCCCCCCCCCCCCCCC[N+](C)(C)CCC[Si](OCC(C)(CO)C(=O)O)(OCC(C)(CO)C(=O)O)OCC(C)(CO)C(=O)O (stereo not shown) [Example 4, Dimethyl-octadecyl-[3-tris(2-carboxy-3-hydroxy-2-methyl-propoxy)silylpropyl]ammonium chloride]
dissolution of the product in water ([2]; water): dissolved readily in water

CCCCCCCCCCCCCCCCCC[N+](C)(C)CCC[Si](OCCCO)(OCCCO)OCCCO [Example 5, Dimethyl-octadecyl-[3-[tris(3-hydroxypropoxy)silyl]propyl]ammonium chloride]
dissolution of the product in water ([2]; water): dissolved readily in water
